Experimental data: patent publication US12653776B2, “Methods of treatment of cancer by continuous infusion of coenzyme Q10” (priority 2013, dated 2026)

Columns and labels:
[1] = tested on: acute erythro-leukemia (K562) cells; test: Acute erythroleukemia (K562) mouse model, survival; assay type: in vivo, mice
Protocol: Human acute erythro-leukemia (K562) and acute myeloid leukemia (KG1) cells (1×10^6) were injected intraperitoneally in immune-compromised mice. Engraftment was confirmed by complete blood counts, presence of anemia, and clinical assessment of animal behavior.
The mice (total n=120 for each model respectively) were randomized into four (n=30/group) treatment groups. Each treatment regimen was administered in a four week cycle with three weeks of treatment, one week off: • 1. Untreated (control) • 2. Coenzyme Q10 (4%, administered at 75 mg/kg, once/day by continuous infusion) • 3. Chemotherapy (cytarabine/AraC 25 mg/kg, 5×/week; and adriamycin/daunorubicin 5 mg/kg; 1×/wk) • 4. Coenzyme Q10 (4%, administered at 75 mg/kg, once/day by continuous infusion)+chemotherapy (cytarabine/AraC 25 mg/kg, 5×/week; and adriamycin/daunorubicin 5 mg/kg; 1×/wk)
All dosings were intravenous and followed a protocol of 3 week treatment followed by 1 week rest. Leukemia was monitored by pallor and blood smears, and hone marrow smears were performed post-mortem for analysis using Wright's stain. Survival results from the study of mice with acute erythroleukemia are show in FIG. 5. Day 1 is the first day of treatment with coenzyme Q10 and/or chemotherapy.

[2] = tested on: MIAPaCa-2 human pancreatic tumor cells; test: Pancreatic cancer (MIAPaCa-2) mouse model, survival; assay type: in vivo, NOD scid gamma (NSG) mice
Protocol: For example, FIG. 7 is a schematic describing a study investigating three different dosing regimens for coenzyme Q10 in an animal model of pancreatic cancer. The effect of coenzyme Q10 alone or in combination with gemcitabine on total survival in a preclinical mouse model of pancreatic cancer was evaluated.
Equal numbers of MIAPaCa-2 human pancreatic tumor cells were suspended in […]® and injected into NOD scid gamma (NSG) mice. The NSG mouse model is devoid of innate and adaptive immune systems and provides a biological environment suitable for the growth of human tumors in vivo. The MIAPaCa-2 is a well established human derived pancreatic carcinoma cell line that can be used to establish pancreatic tumors in immunosuppressed animals. MIAPaca-2 tumors were allowed to develop for, on average, at least 3 weeks in mice prior to initiation of treatment. Animals with palpable tumors were randomized into treatment groups.
The three treatment regimens utilized for the study included once/daily, twice/daily or thrice/daily dosing of coenzyme Q10 at either 50 mg/kg body weight (Regimen 1 & Regimen 2) or 50 mg/kg or 75 mg/kg body weight (Regimen 3) alone or in combination with a fixed dose of gemcitabine (150) mg/kg body weight). For example, mice treated twice/daily received two 50 mg/kg doses of coenzyme Q10, for a total of 100 mg/kg/day, and mice treated thrice daily received three 50 mg/kg doses of coenzyme Q10 for a total of 150 mg/kg/day. Each group of animals received chemotherapeutic treatment for a minimum of three cycles and was maintained to determine outcomes.
Next, a continuous infusion protocol was implemented to determine the effect of constant coenzyme Q10 administration on survival in an animal model of pancreatic cancer. An infusion pump was surgically installed in the animals to facilitate continuous infusion of coenzyme Q10 at a dose of 25 mg/kg, 50 mg/kg or 100 mg/kg body weight per day. Treatment was continued throughout the entire duration of the study.

advanced solid tumors = test: First-in-human Phase 1 study (CTL0510), 4-hour IV infusion 3 times weekly: tumor response; assay type: in vivo
Protocol: The first-in-human Phase 1 study with coenzyme Q10 nanosuspension (40 mg/ml) was conducted in 50 patients with advanced solid tumors. The objectives were to assess the safety, maximum tolerated dose, PK and PD of coenzyme Q10, specifically a 4% coenzyme Q10 nanosuspension formulation (as described in WO 2011/112900, the entire contents of which are expressly incorporated herein by reference), administered as a 4-hour IV infusion 3 times weekly in 28-day cycles. Nine dose levels were explored ranting from 5.62 to 139 mg/kg. Plasma concentration profiles and PK parameters were determined from blood samples collected pre-dose and at intervals to 48 hours post-dose.

[3] = tested on: lung chloromas (MIA C51 clone); test: Lung chloroma rat model, survival; assay type: in vivo, rats; conditions: continuous infusion vs injection 3 times a day, 50 mg/kg per day
Text: The effect of dosing schedule of coenzyme Q10 was also investigated in rats bearing liver or lung chloromas. Rats were transplanted with liver or lung clones of malignant chloromas derived from a stable myelogenous leukemia (chloroleukemia) cell line, MIA C51 (see. e.g., Jimenez and Yunis (1987) Science 238: 1278-1280). The clones have been selected to home to and form tumors in the liver or lungs, respectively. Rats were randomized to receive either no treatment, injection 3 times a day with 40 mg/mL (4%) coenzyme Q10, or continuous infusion of 40 mg/mL (4%) coenzyme Q10 via an implanted pump, to deliver for each regimen a total dose of 50 mg/kg body weight per day. […] For example, at Day 189 in the liver chloroma model, 45 of 50 rats were alive in the continuous infusion treatment group compared with 26 of 50 rats alive in the injection treatment group. All control animals were dead at Day 30.

[4] = tested on: H522 human lung cancer cells; test: H522 human lung cancer rat model, survival; assay type: in vivo, rats
Protocol: The effect of coenzyme Q10 dosing regimens was further investigated in rats implanted with H522 human lung cancer cells. Rats were randomized to receive either no treatment (control), continuous infusion with coenzyme Q10, chemotherapy, or a combination of coenzyme Q10 and chemotherapy. The dose of coenzyme Q10 was 50 mg/kg per day over 24 hours and the concentration was 4%. The chemotherapy was repeated on a three week cycle as follows: week 1: I.V. Cyclophosphamide, 35 mg/kg, 1×/wk and I.V. Doxorubicin 2.5 mg/kg, 3×/wk; Weeks 2-3: no treatment.

coenzyme Q10
survival ([1]; coenzyme Q10 75 mg/kg/day continuous infusion + chemotherapy (cytarabine + daunorubicin) vs other groups incl. chemotherapy alone, p<0.00001): significant increase in survival
survival ([1]; coenzyme Q10 alone (4%, 75 mg/kg once/day by continuous infusion) vs chemotherapy alone): relatively similar survival compared to chemotherapy alone
survival ([2]; coenzyme Q10 alone, once/twice/thrice daily 50 mg/kg (or 75 mg/kg), vs untreated or chemotherapy alone): increase in survival
survival rates ([2]; coenzyme Q10 in combination with gemcitabine 150 mg/kg): higher survival rates than coenzyme Q10 alone or gemcitabine alone
survival rates ([2]; continuous infusion): higher survival rates than those treated with continuous infusion of 50 mg/kg or 25 mg/kg
survival rate ([2]; continuous infusion 25 mg/kg body weight per day vs 50 mg/kg three times per day): higher survival rate
animal survival ([2]; increasing 50 mg/kg doses from once/daily to three times per day): significant improvement in animal survival
progressive disease (advanced solid tumors; 15 patients): 30%
best response stable disease (advanced solid tumors; 23 of 50 patients): 46%
partial response (advanced solid tumors; patient with a sarcoma): One
effectiveness of continuous infusion regimen [3]: much more effective than the injection regimen
animal survival ([4]; continuous infusion 50 mg/kg per day combined with chemotherapy (cyclophosphamide + doxorubicin)): more effective than either treatment alone
animal survival ([4]; continuous infusion alone, 50 mg/kg per day over 24 hours, 4%, vs cyclophosphamide + doxorubicin): more effective than chemotherapy alone
